The compounds below were run on primary cultured mouse cortical neurons. Conditions: 10 μM, pH 6.0, n=8.
For `CC(C)CCC[C@@H](C)[C@H]1CC[C@H]2[C@@H]3C[C@@H]4O[C@@]45C[C@@H](O)CC[C@]5(C)[C@H]3CC[C@]12C` [5α,6α-epoxy-Chol, 5α,6α-epoxycholesterol], the “protection against acid-induced neuronal injury (LDH release), analogs” value (from here on “protection … analogs”) was “none of them shows significant protection”.
With `C[C@@]12CCC[C@H]1[C@@H]1C[C@@H](O)[C@@]3(O)C[C@@H](O)CC[C@]3(C)[C@H]1CC2` [Andro-triol, 5α-androst-3β, 5, 6β-triol] the “protection … analogs” value was “none of them shows significant protection”.
`CC(C)CCC[C@@H](C)[C@H]1CC[C@H]2[C@@H]3C[C@H]4O[C@]45C[C@@H](O)CC[C@]5(C)[C@H]3CC[C@]12C` [5β,6β-epoxy-Chol, 5β,6β-epoxycholesterol] was tested, and the “protection … analogs” value was “none of them shows significant protection”.

From US20240165129A1, “METHODS OF TREATING PAIN AND DEPRESSION” (priority 2022, published 2024)
